CC1=C(O)C(=O)C(C)O1 (stereo not drawn)
solubility (mole fraction)
Details | 278.15 K | 283.15 K | 288.15 K | 293.15 K | 298.15 K | 303.15 K | 308.15 K | 313.15 K
in 1,4-dioxane | 0.192 | 0.22 | 0.248 | 0.282 | 0.315 | 0.357 | 0.4 | 0.445
in DMF | 0.256 | 0.281 | 0.307 | 0.336 | 0.368 | 0.402 | 0.439 | 0.479
in acetone | 0.127 | 0.151 | 0.177 | 0.209 | 0.244 | 0.284 | 0.329 | 0.381
in acetonitrile | 0.0733 | 0.0896 | 0.11 | 0.134 | 0.164 | 0.202 | 0.248 | 0.303
in chloroform | 0.256 | 0.281 | 0.307 | 0.336 | 0.368 | 0.402 | 0.439 | 0.479
in cyclohexanone | 0.105 | 0.128 | 0.155 | 0.187 | 0.225 | 0.269 | 0.318 | 0.372
in dichloromethane | 0.139 | 0.16 | 0.189 | 0.219 | 0.254 | 0.292 | 0.337 | 0.386
in isopropanol | 0.181 | 0.211 | 0.24 | 0.272 | 0.309 | 0.348 | 0.387 | 0.435
in methyl acetate | 0.139 | 0.16 | 0.189 | 0.219 | 0.254 | 0.292 | 0.337 | 0.386
in n-propyl acetate | 0.139 | 0.16 | 0.189 | 0.219 | 0.254 | 0.292 | 0.337 | 0.386
in sec-butanol | 0.105 | 0.128 | 0.155 | 0.187 | 0.225 | 0.269 | 0.318 | 0.372

Reference: BigSolDB 2.1
